These results are taken from publication PMC12476087, “Loading of Dicarboxylatoplatinum(II)‐NHC Complexes in Bacterial Ghosts as an Advanced Development in Cancer Therapy” (Archiv Der Pharmazie, 2025).

Series [1] can be described thus: Stability in RPMI 1640 cell culture medium (HPLC‐MS). The series is classed as physicochemical. The conditions noted are these: RPMI 1640 without FCS, 1 h incubation, extracted ion chromatograms. As for the experimental part: Additional stability studies in aqueous media and RPMI 1640 (without FCS) were carried out using RP‐HPLC‐MS. For this purpose, 0.5 mM solutions of complexes 1 and 2 were prepared in Milli‐Q water and RPMI 1640. Samples were analyzed by HPLC‐MS immediately after preparation and at selected time points during 24 h of incubation at rt. HPLC‐MS measurements were performed on Agilent 1260 system hyphenated to an MS Single Quad detector from Agilent with ESI (LC‐MSD from Agilent Technologies, Santa Clara, CA, USA). As stationary phase, a Gemini C18 110 Å; 150 × 4.6 mm; 3.0 µm particles (Phenomenex Ltd.; Aschaffenburg, Germany) column was employed and equipped with a 4 × 3 mm guard column of the identical material. The mobile phase flow was set to 0.8 mL/min; and consisted of a mixture of water (solvent A) – MeOH (solvent B) using gradient elution (0 min 5% B; 3 min 5% B; 17 min 98% B; 20 min stop; post time 10 min). The oven temperature was maintained at 30°C and the MS analysis was performed with split flow 1:5 of the eluate in positive ionization mode (capillary voltage 4.5 kV; source temperature 320°C; dry gas 10 L/min; nebulizer gas pressure 30 psi, scan range m/z 50–1500). The injection volume of the sample solution (V sample) was set to 10 µL. Sample degradation was evaluated by integration of the extracted ion chromatograms at the indicated m/z ± 0.5 (based on the monoisotopic peaks).

For series [2], the system named is surface calreticulin on A2780cis cells. Kind of series: Immunofluorescent surface calreticulin staining, A2780cis. The following applies: w/o BGs, 25 µM, 24 h. The series is classed as cell-based. How it is done: Oxaliplatin, a known metal‐based ICD inducer, was included for comparison.
A2780wt or A2780cis cells were seeded at a density of 1.2 × 10^5 on cover slips and allowed to adhere for 24 h. […] Subsequently, the cells were washed again three times with PBS and they were incubated after adding the secondary antibody (Alexa‐Fluor‐conjugated anti‐rabbit, 1:200), for 45 min at rt. Subsequently, the cells were washed again three times with PBS and they were mounted on slides with mounting medium. After letting them dry overnight, visualization was performed by spinning disk confocal microscopy. […] Acquired images were background subtracted, individual cells were manually segmented, and fluorescence intensity for the calreticulin staining was quantified with a FIJI software. Two repetitions of the experiment were performed, where at least 20 cells per condition were analyzed and the mean intensity of each sample was calculated, respectively.

The nature of series [3]: Stability in D2O (1H NMR). The series is classed as physicochemical. The conditions noted are these: for behaviour in D2O (aquation): rt, up to 24 h. How it is done: Stability of the complexes 1–4 in CDCl3, CD3OD, CD3CN, DMF‐d7, and D2O was monitored by ^1H NMR spectroscopy at ambient temperature. Solutions of the complexes (approximately 3 mg/mL) were prepared in each solvent, and ¹H NMR spectra were recorded periodically over 24 h.

For the next series, the system named is A2780cis cells. Kind of series: MTT assay, A2780cis cells. The series is classed as cell-based. The following applies: for Resistance factor RF = IC50(A2780cis)/IC50(A2780wt): 72 h; for IC50: 72 h exposure. How it is done:
Carboplatin, a second‐generation platinum drug commonly used as part of standard first‐line chemotherapy for ovarian carcinoma, was examined as a reference compound due to its clinical relevance. Additionally, the nonmalignant bone marrow stromal cell line HS‐5 was included as a control to assess specificity of the complexes toward cancer cells.
Unloaded BGs (4 × 10^8 EcN or 2 × 10^8 Ec NM522, which is equivalent to the highest tested BG concentration) were tested as controls.
The exponentially growing cells were seeded at a density of 8 × 10^3 cells/well (A2780wt/cis) or 1 × 10^4 cells/well (HS‐5), respectively, into clear flat‐bottom 96‐well plates in triplicates. […] After another 72 h of incubation, the cellular metabolic activity was measured as an indicator of cell viability employing an MTT assay. Hereby, 20 µL of a 5 mg/mL MTT solution was added to each well, respectively. After 3 h of incubation, the medium was discarded, and the formazan crystals formed were dissolved in DMSO for 15 min with gentle shaking. […] The OD at 620 nm was subtracted from the OD at 595 nm. The OD of the medium was subtracted to exclude the unspecific staining caused by FCS‐containing medium. Cells treated with vehicle control (0.1% DMF) only were set at 100% metabolic activity. The IC50 values were calculated with Prism 8.0 (GraphPad Software Inc., Boston, MA, USA) using nonlinear regression. Significance was evaluated via a one sample t‐test performed with Prism 8.0.

The nature of series [4]: Stability in aqueous solution (RP‐HPLC‐MS). The series is classed as physicochemical. The conditions noted are these: 0.5 mM in water, rt; m/z 446.1 (1, 20 h), m/z 602.2 (2). How it is done: Samples were analyzed by HPLC‐MS immediately after preparation and at selected time points during 24 h of incubation at rt. […] As stationary phase, a Gemini C18 110 Å; 150 × 4.6 mm; 3.0 µm particles (Phenomenex Ltd.; Aschaffenburg, Germany) column was employed and equipped with a 4 × 3 mm guard column of the identical material. […] The oven temperature was maintained at 30°C and the MS analysis was performed with split flow 1:5 of the eluate in positive ionization mode (capillary voltage 4.5 kV; source temperature 320°C; dry gas 10 L/min; nebulizer gas pressure 30 psi, scan range m/z 50–1500). The injection volume of the sample solution (V sample) was set to 10 µL. Sample degradation was evaluated by integration of the extracted ion chromatograms at the indicated m/z ± 0.5 (based on the monoisotopic peaks).

Take `CCN1[C]([Pt]([O]C(C)=O)([O]C(C)=O)[SH](C)(C)=O)N(CC)c2ccccc21` [Compound 1, (SP‐4‐2)‐Diacetato(1,3‐diethylbenzimidazol‐2‐ylidene)(dimethylsulfoxide)platinum(II)]: the “concentration remaining in RPMI 1640” value in series [1] is “approximately 37%”. Besides, in series [2], the “x‐fold intensity of surface calreticulin compared to untreated cells” value (“x‐fold intensity of surface calreticulin” below) is 1.18 ± 0.37 x‐fold. Also, the “behaviour in D2O (aquation)” value in series [3] is given as “No significant spectral changes were observed during incubation for 24 h at rt”. Also, the “complex that had released its acetates” value in series [3] (within 5 min of dissolution) was “over 70%”. Besides, in the series with A2780cis cells, the “Resistance factor RF = IC50(A2780cis)/IC50(A2780wt)” value amounted to 1.2 and half-maximal inhibition (IC50) required 36.5 ± 2.85 µM. Further, in series [4], the “change of HPLC‐MS signal intensity in aqueous solution” value is on record as “No significant decrease in the intensity of this signal”.

`CCN1[C]([Pt]([O]C(=O)C(Cl)Cl)([O]C(=O)C(Cl)Cl)[SH](C)(C)=O)N(CC)c2ccccc21` [Compound 3, (SP‐4‐2)‐Bis(dichloroacetato)(1,3‐diethylbenzimidazol‐2‐ylidene)(dimethylsulfoxide)platinum(II)]: the “x‐fold intensity of surface calreticulin” value in series [2] was determined as 0.75 ± 0.28 x‐fold. Besides, the IC50 in the series on A2780cis cells came to 83.1 ± 4.79 µM.

In the case of “(SP‐4‐2)‐Bis(dichloroacetato)bis(1,3‐diethylbenzimidazol‐2‐ylidene)platinum(II) [Compound 4]”, the “x‐fold intensity of surface calreticulin” value in series [2] was 1.13 ± 0.36 x‐fold. Besides, in the series with A2780cis cells, the “Resistance factor RF = IC50(A2780cis)/IC50(A2780wt)” value stood at 0.9 and the IC50 was found to be 34.9 ± 1.7 µM.

As for “(SP‐4‐2)‐Diacetatobis(1,3‐diethylbenzimidazol‐2‐ylidene)platinum(II) [Compound 2]”, in series [1], the “concentration remaining in RPMI 1640” value is reported as approximately 7%. In addition, the “x‐fold intensity of surface calreticulin” value in series [2] came out at 1.02 ± 0.05 x‐fold. Further, the “behaviour in D2O (aquation)” value in series [3] is recorded as “fast initial aquation”. Besides, in the series on A2780cis cells, the “Resistance factor RF = IC50(A2780cis)/IC50(A2780wt)” value is recorded as 1.0 and half-maximal inhibition (IC50) was put at 39.3 ± 2.8 µM. The “change of HPLC‐MS signal intensity in aqueous solution” value in series [4] is listed as “progressively decreased over time”.
